# Data as given in ChEMBL document CHEMBL1671652, “Efficacy of piperacillin combined with the Penem beta-lactamase inhibitor BLI-489 in murine models of systemic infection” (2009).
# What was measured:
# Salmonella typhimurium [1] = assay: Antimicrobial activity against CTX-M-5 beta-lactamase producing Salmonella enterica serovar Typhimurium GC 4195 by broth microdilution method; type: functional, Salmonella enterica subsp. enterica serovar Typhimurium
# Escherichia coli [2] = assay: Antimicrobial activity against TEM-1 beta-lactamase producing Escherichia coli GC 6265 by broth microdilution method; type: functional
# Staphylococcus aureus [3] = assay: Antimicrobial activity against penicillinase producing Staphylococcus aureus GC 6468 infected in CD-1 mouse treated 30 and 150 mins postinfection; type: functional
# Salmonella typhimurium [4] = assay: Antimicrobial activity against CTX-M-5 beta-lactamase producing Salmonella enterica serovar Typhimurium GC 4195 infected in CD-1 mouse treated 30 and 150 mins postinfection in presence of beta-lactamase inhibitor Tazobactam; type: functional, Salmonella enterica subsp. enterica serovar Typhimurium
# Enterobacter cloacae [5] = assay: Antimicrobial activity against AmpC beta-lactamase producing Enterobacter cloacae GC 4142 infected in CD-1 mouse treated 30 and 150 min postinfection in presence of 6:1 ratio of compound to beta-lactamase inhibitor BLI-489; type: functional
# Escherichia coli [6] = assay: Antimicrobial activity against TEM-1 beta-lactamase producing Escherichia coli GC 6265 by broth microdilution method in presence of beta-lactamase inhibitor Tazobactam; type: functional
# Staphylococcus aureus [7] = assay: Antimicrobial activity against penicillinase producing Staphylococcus aureus GC 6468 by broth microdilution method; type: functional
# Enterobacter cloacae [8] = assay: Antimicrobial activity against AmpC beta-lactamase producing Enterobacter cloacae GC 4142 infected in CD-1 mouse treated 30 and 150 min postinfection; type: functional
# Klebsiella pneumoniae [9] = assay: Antimicrobial activity against SHV-11 beta-lactamase producing Klebsiella pneumoniae GAR 7693 infected in CD-1 mouse treated 30 and 150 mins postinfection; type: functional
# Escherichia coli [10] = assay: Antimicrobial activity against OXA-1 beta-lactamase producing Escherichia coli GAR 5946 by broth microdilution method; type: functional
# Escherichia coli [11] = assay: Antimicrobial activity against TEM-1 beta-lactamase producing Escherichia coli GC 6265 by broth microdilution method in presence of 8:1 ratio of compound to beta-lactamase inhibitor BLI-489; type: functional
# Enterobacter cloacae [12] = assay: Antimicrobial activity against AmpC beta-lactamase producing Enterobacter cloacae GC 4142 infected in CD-1 mouse treated 30 and 150 min postinfection in presence of 2:1 ratio of compound to beta-lactamase inhibitor BLI-489; type: functional
# Escherichia coli [13] = assay: Antimicrobial activity against ACT-1 beta-lactamase producing Escherichia coli GC 2814 infected in CD-1 mouse treated 30 and 150 mins postinfection in presence of 8:1 ratio of compound to beta-lactamase inhibitor BLI-489; type: functional
# Klebsiella pneumoniae [14] = assay: Antimicrobial activity against SHV-1and SHV-5 beta-lactamase producing Klebsiella pneumoniae GAR 7978 by broth microdilution method in presence of beta-lactamase inhibitor Tazobactam; type: functional
# Escherichia coli [15] = assay: Antimicrobial activity against OXA-1 beta-lactamase producing Escherichia coli GAR 5946 by broth microdilution method in presence of beta-lactamase inhibitor Tazobactam; type: functional
# Salmonella typhimurium [16] = assay: Antimicrobial activity against CTX-M-5 beta-lactamase producing Salmonella enterica serovar Typhimurium GC 4195 infected in CD-1 mouse treated 30 and 150 mins postinfection in presence of 8:1 ratio of compound to beta-lactamase inhibitor BLI-489; type: functional, Salmonella enterica subsp. enterica serovar Typhimurium
# Pseudomonas aeruginosa [17] = assay: Antimicrobial activity against AmpC beta-lactamase producing Pseudomonas aeruginosa GC 1764 by broth microdilution method in presence of beta-lactamase inhibitor Tazobactam; type: functional
# Klebsiella pneumoniae [18] = assay: Antimicrobial activity against SHV-1and SHV-5 beta-lactamase producing Klebsiella pneumoniae GAR 7978 infected in CD-1 mouse treated 30 and 150 mins postinfection; type: functional
# Pseudomonas aeruginosa [19] = assay: Antimicrobial activity against AmpC beta-lactamase producing Pseudomonas aeruginosa GC 1764 infected in CD-1 mouse treated 30 and 150 mins postinfection in presence of beta-lactamase inhibitor Tazobactam; type: functional
# Salmonella typhimurium [20] = assay: Antimicrobial activity against CTX-M-5 beta-lactamase producing Salmonella enterica serovar Typhimurium GC 4195 by broth microdilution method in presence of 8:1 ratio of compound to beta-lactamase inhibitor BLI-489; type: functional, Salmonella enterica subsp. enterica serovar Typhimurium
# Escherichia coli [21] = assay: Antimicrobial activity against TEM-10 beta-lactamase producing Escherichia coli GC 2022 by broth microdilution method; type: functional
# Escherichia coli [22] = assay: Antimicrobial activity against ACT-1 beta-lactamase producing Escherichia coli GC 2814 by broth microdilution method in presence of beta-lactamase inhibitor Tazobactam; type: functional
# Klebsiella pneumoniae [23] = assay: Antimicrobial activity against SHV-11 beta-lactamase producing Klebsiella pneumoniae GAR 7693 by broth microdilution method; type: functional
# Escherichia coli [24] = assay: Antimicrobial activity against TEM-1 beta-lactamase producing Escherichia coli GC 6265 infected in CD-1 mouse treated 30 mins postinfection in presence of 12:1 ratio of compound to beta-lactamase inhibitor BLI-489; type: functional; settings: GC 6265, 0.5 h
# Escherichia coli [25] = assay: Antimicrobial activity against TEM-10 beta-lactamase producing Escherichia coli GC 2022 by broth microdilution method in presence of beta-lactamase inhibitor Tazobactam; type: functional
# Klebsiella pneumoniae [26] = assay: Antimicrobial activity against SHV-1and SHV-5 beta-lactamase producing Klebsiella pneumoniae GAR 7978 infected in CD-1 mouse treated 30 and 150 mins postinfection in presence of 8:1 ratio of compound to beta-lactamase inhibitor BLI-489; type: functional
# Enterobacter cloacae [27] = assay: Antimicrobial activity against AmpC beta-lactamase producing Enterobacter cloacae GC 4142 by broth microdilution method; type: functional
# Escherichia coli [28] = assay: Antimicrobial activity against TEM-10 beta-lactamase producing Escherichia coli GC 2022 infected in CD-1 mouse treated 30 mins postinfection; type: functional; settings: GC 2022, 0.5 h
# Enterobacter cloacae [29] = assay: Antimicrobial activity against AmpC beta-lactamase producing Enterobacter cloacae GC 4142 by broth microdilution method in presence of 8:1 ratio of compound to beta-lactamase inhibitor BLI-489; type: functional
# Enterobacter cloacae [30] = assay: Antimicrobial activity against AmpC beta-lactamase producing Enterobacter cloacae GC 4142 infected in CD-1 mouse treated 30 and 150 min postinfection in presence of 12:1 ratio of compound to beta-lactamase inhibitor BLI-489; type: functional
# Escherichia coli [31] = assay: Antimicrobial activity against TEM-1 beta-lactamase producing Escherichia coli GC 6265 infected in CD-1 mouse treated 30 mins postinfection in presence of beta-lactamase inhibitor Tazobactam; type: functional; settings: GC 6265, 0.5 h
# Pseudomonas aeruginosa [32] = assay: Antimicrobial activity against AmpC beta-lactamase producing Pseudomonas aeruginosa GC 1764 infected in CD-1 mouse treated 30 and 150 mins postinfection in presence of 8:1 ratio of compound to beta-lactamase inhibitor BLI-489; type: functional
# Escherichia coli [33] = assay: Antimicrobial activity against TEM-1 beta-lactamase producing Escherichia coli GC 6265 infected in CD-1 mouse treated 30 mins postinfection in presence of 2:1 ratio of compound to beta-lactamase inhibitor BLI-489; type: functional; settings: GC 6265, 0.5 h
# Enterobacter cloacae [34] = assay: Antimicrobial activity against AmpC beta-lactamase producing Enterobacter cloacae GC 4142 by broth microdilution method in presence of beta-lactamase inhibitor Tazobactam; type: functional
# Staphylococcus aureus [35] = assay: Antimicrobial activity against penicillinase producing Staphylococcus aureus GC 6468 infected in CD-1 mouse treated 30 and 150 mins postinfection in presence of 8:1 ratio of compound to beta-lactamase inhibitor BLI-489; type: functional
# Klebsiella pneumoniae [36] = assay: Antimicrobial activity against SHV-11beta-lactamase producing Klebsiella pneumoniae GAR 7693 infected in CD-1 mouse treated 30 and 150 mins postinfection in presence of beta-lactamase inhibitor Tazobactam; type: functional
smiles,measurement,setting,value
CCN1CCN(C(=O)N[C@@H](C(=O)N[C@@H]2C(=O)N3[C@@H]2SC(C)(C)[C@@H]3C(=O)O)c2ccccc2)C(=O)C1=O [PIPERACILLIN],MIC,Salmonella typhimurium [1],8 µg/mL
same,MIC,Escherichia coli [2],> 64 µg/mL
same,ED50,Staphylococcus aureus [3],418 mg/kg
same,ED50,Salmonella typhimurium [4],152 mg/kg
same,ED50,Enterobacter cloacae [5],30 mg/kg
same,MIC,Escherichia coli [6],128 µg/mL
same,MIC,Staphylococcus aureus [7],> 64 µg/mL
same,ED50,Enterobacter cloacae [8],282 mg/kg
same,ED50,Klebsiella pneumoniae [9],193 mg/kg
same,MIC,Escherichia coli [10],2 µg/mL
same,MIC,Escherichia coli [11],4 µg/mL
same,ED50,Enterobacter cloacae [12],31 mg/kg
same,ED50,Escherichia coli [13],13 mg/kg
same,MIC,Klebsiella pneumoniae [14],> 64 µg/mL
same,MIC,Escherichia coli [15],0.25 µg/mL
same,ED50,Salmonella typhimurium [16],45 mg/kg
same,MIC,Pseudomonas aeruginosa [17],32 µg/mL
same,ED50,Klebsiella pneumoniae [18],245 mg/kg
same,ED50,Pseudomonas aeruginosa [19],246 mg/kg
same,MIC,Salmonella typhimurium [20],> 64 µg/mL
same,MIC,Escherichia coli [21],1 µg/mL
same,MIC,Escherichia coli [22],> 64 µg/mL
same,MIC,Klebsiella pneumoniae [23],2 µg/mL
same,ED50,Escherichia coli [24],11 mg/kg
same,MIC,Escherichia coli [25],2 µg/mL
same,ED50,Klebsiella pneumoniae [26],28 mg/kg
same,MIC,Enterobacter cloacae [27],8 µg/mL
same,ED50,Escherichia coli [28],301 mg/kg
same,MIC,Enterobacter cloacae [29],> 64 µg/mL
same,ED50,Enterobacter cloacae [30],60 mg/kg
same,ED50,Escherichia coli [31],11 mg/kg
same,ED50,Pseudomonas aeruginosa [32],103 mg/kg
same,ED50,Escherichia coli [33],8.5 mg/kg
same,MIC,Enterobacter cloacae [34],4 µg/mL
same,ED50,Staphylococcus aureus [35],12 mg/kg
same,ED50,Klebsiella pneumoniae [36],24 mg/kg
